According to patent US11826399B2, “Chlorotoxin agents and uses thereof” (Eisai Inc., priority 2017, dated 2023):
Values joined by “and” are separate entries in the source; they are usually repeats but may differ in a detail not shown here. Identical values can stand only once.

Test: Plasma and tissue distribution of Cryptophycin Payload and Cryptophycin Metabolite 1 after Cryptophycin Payload alone or with CTX in PC-3 xenograft nude mice (LC-MS/MS)
Type: in vivo, mouse
Procedure: For the present experiment, materials, methods, drugs and model were as described in Example 21. […] Following intravenous administration, whole blood samples were collected at predetermined time points via cardiac puncture (n=3 mice per time point). Blood samples were centrifuged to obtain plasma and subsequently stored at […] or lower pending analysis. Additionally, at each time point, kidney, liver, small intestine, brain, heart, and tumor were harvested by removing entire specimen from surrounding tissues (only a portion of liver and small intestine were removed). After removal, tissues were rinsed with normal saline solution (contents of small intestine were emptied) and blotted dry with clean adsorptive tissue. Once dried, the specimens were weighed and stored at −20° C. or lower pending analysis. […] Pharmacokinetic (PK) parameters were calculated. Mean plasma and tissue concentrations were used to calculate mean PK parameters. Skin and skeletal muscle which were not assessed due to difficulty of homogenization.
Vehicle for single dose group was 10% ethanol, 5% Tween 80, 85% saline. Vehicle for combination treatment was 5% ethanol, 2.5% Tween 80, 92.5% saline.

[1] = Payload 0.4 mg/kg + CTX 16 mg/kg IV, 24 h
[2] = Payload 0.4 mg/kg IV alone, 0.083 h
[3] = Payload 0.4 mg/kg IV alone, 0.5 h
[4] = Payload 0.4 mg/kg IV alone, 1 h
[5] = Payload 0.4 mg/kg IV alone, 2 h
[6] = Payload 0.4 mg/kg IV alone, 6 h
[7] = Payload 0.4 mg/kg IV alone, 24 h
[8] = Plasma, Payload 0.4 mg/kg + CTX 16 mg/kg IV
[9] = Plasma, Payload 0.4 mg/kg IV alone
[10] = Small Intestine, Payload 0.4 mg/kg + CTX 16 mg/kg IV
[11] = Small Intestine, Payload 0.4 mg/kg IV alone
[12] = Tumor, Payload 0.4 mg/kg + CTX 16 mg/kg IV
[13] = Tumor, Payload 0.4 mg/kg IV alone

CCCCNC(=O)Cc1ccccc1SSC(C)(C)CCN1CCN(Cc2ccc(C3OC3C(C)C3CC=CC(=O)NC(Cc4ccc(OC)c(Cl)c4)C(=O)NCC(C)(C)C(=O)NC(CC(C)C)C(=O)O3)cc2)CC1 (stereo not drawn) [Cryptophycin Payload]
Concentration of Cryptophycin Payload, Liver, Mean [1]: BLQ | Concentration of Cryptophycin Payload, Plasma, Mean [1]: BLQ | Concentration of Cryptophycin Payload, Small Intestine, Mean [1]: BLQ | Concentration of Cryptophycin Payload, Tumor, Mean [1]: BLQ | Concentration of Cryptophycin Payload, Brain, Mean [2]: 8.32 ng/g | Concentration of Cryptophycin Payload, Heart, Mean [2]: 63.2 ng/g | Concentration of Cryptophycin Payload, Kidney, Mean [2]: 533 ng/g | Concentration of Cryptophycin Payload, Liver, Mean [2]: 6.02 ng/g | Concentration of Cryptophycin Payload, Plasma, Mean [2]: 493 ng/mL | Concentration of Cryptophycin Payload, Small Intestine, Mean [2]: 53.3 ng/g | Concentration of Cryptophycin Payload, Tumor, Mean [2]: 11.6 ng/g | Concentration of Cryptophycin Payload, Brain, Mean [3]: 1.42 ng/g | Concentration of Cryptophycin Payload, Heart, Mean [3]: 18.9 ng/g | Concentration of Cryptophycin Payload, Kidney, Mean [3]: 320 ng/g | Concentration of Cryptophycin Payload, Liver, Mean [3]: 1.92 ng/g | Concentration of Cryptophycin Payload, Plasma, Mean [3]: 36.3 ng/mL | Concentration of Cryptophycin Payload, Small Intestine, Mean [3]: 13.6 ng/g | Concentration of Cryptophycin Payload, Tumor, Mean [3]: 4.11 ng/g | Concentration of Cryptophycin Payload, Brain, Mean [4]: 0.673 ng/g | Concentration of Cryptophycin Payload, Heart, Mean [4]: 7.91 ng/g | Concentration of Cryptophycin Payload, Kidney, Mean [4]: 158 ng/g | Concentration of Cryptophycin Payload, Liver, Mean [4]: 3.32 ng/g | Concentration of Cryptophycin Payload, Plasma, Mean [4]: 11.0 ng/mL | Concentration of Cryptophycin Payload, Small Intestine, Mean [4]: 6.55 ng/g | Concentration of Cryptophycin Payload, Tumor, Mean [4]: 2.14 ng/g | Concentration of Cryptophycin Payload, Brain, Mean [5]: 0.436 ng/g | Concentration of Cryptophycin Payload, Heart, Mean [5]: 3.28 ng/g | Concentration of Cryptophycin Payload, Kidney, Mean [5]: 93.8 ng/g | Concentration of Cryptophycin Payload, Liver, Mean [5]: 1.29 ng/g | Concentration of Cryptophycin Payload, Plasma, Mean [5]: 5.30 ng/mL | Concentration of Cryptophycin Payload, Small Intestine, Mean [5]: 6.41 ng/g | Concentration of Cryptophycin Payload, Tumor, Mean [5]: 2.41 ng/g | Concentration of Cryptophycin Payload, Brain, Mean [6]: BLQ | Concentration of Cryptophycin Payload, Heart, Mean [6]: 0.885 ng/g | Concentration of Cryptophycin Payload, Kidney, Mean [6]: 20.4 ng/g | Concentration of Cryptophycin Payload, Liver, Mean [6]: 0.948 ng/g | Concentration of Cryptophycin Payload, Plasma, Mean [6]: 0.492 ng/mL | Concentration of Cryptophycin Payload, Small Intestine, Mean [6]: 2.17 ng/g | Concentration of Cryptophycin Payload, Tumor, Mean [6]: 1.03 ng/g | Concentration of Cryptophycin Payload, Brain, Mean [7]: BLQ | Concentration of Cryptophycin Payload, Heart, Mean [7]: BLQ | Concentration of Cryptophycin Payload, Kidney, Mean [7]: 3.79 ng/g | Concentration of Cryptophycin Payload, Liver, Mean [7]: BLQ | Concentration of Cryptophycin Payload, Plasma, Mean [7]: BLQ | Concentration of Cryptophycin Payload, Small Intestine, Mean [7]: 2.31 ng/g | Concentration of Cryptophycin Payload, Tumor, Mean [7]: 0.335 ng/g | AUC(0-inf) of Cryptophycin Payload [8]: 129 ng·h/mL | AUC(0-t) of Cryptophycin Payload [8]: 128 ng·h/mL | CL of Cryptophycin Payload [8]: 51.8 mL/min/kg | Vss of Cryptophycin Payload [8]: 2.28 L/kg | t1/2 of Cryptophycin Payload [8]: 50.9 min | AUC(0-inf) of Cryptophycin Payload [9]: 154 ng·h/mL | AUC(0-t) of Cryptophycin Payload [9]: 153 ng·h/mL | CL of Cryptophycin Payload [9]: 43.3 mL/min/kg | Vss of Cryptophycin Payload [9]: 1.15 L/kg | t1/2 of Cryptophycin Payload [9]: 67.8 min | AUC(0-inf) of Cryptophycin Payload [10]: 36.4 ng·h/g | AUC(0-t) of Cryptophycin Payload [10]: 34.9 ng·h/g | t1/2 of Cryptophycin Payload [10]: 76.2 min | tmax of Cryptophycin Payload [10]: 4.8 min | TPI of Cryptophycin Payload (Small Intestine, Payload 0.4 mg/kg + CTX 16 mg/kg IV, AUC0-inf tissue/AUC0-inf plasma): 0.282 mL/g | AUC(0-t) of Cryptophycin Payload [11]: 81.6 ng·h/g | tmax of Cryptophycin Payload [11]: 4.98 min and 4.8 min | TPI of Cryptophycin Payload (Small Intestine, Payload 0.4 mg/kg IV alone, AUC0-6 h tissue/AUC0-6 h plasma): 0.268 mL/g and 0.268^c mL/g | AUC(0-t) of Cryptophycin Payload [12]: 42.7 ng·h/g | tmax of Cryptophycin Payload [12]: 4.8 min | TPI of Cryptophycin Payload (Tumor, Payload 0.4 mg/kg + CTX 16 mg/kg IV, AUC0-6 h tissue/AUC0-6 h plasma): 0.334 mL/g and 0.334^c mL/g | AUC(0-inf) of Cryptophycin Payload [13]: 28.8 ng·h/g | AUC(0-t) of Cryptophycin Payload [13]: 24.9 ng·h/g | t1/2 of Cryptophycin Payload [13]: 506 min | tmax of Cryptophycin Payload [13]: 4.98 min and 4.8 min | TPI of Cryptophycin Payload (Tumor, Payload 0.4 mg/kg IV alone, AUC0-inf tissue/AUC0-inf plasma): 0.187 mL/g
